Among the targets are human CYP2C9 (Homo sapiens, UniProt P11712); human CYP2C19 (Homo sapiens, UniProt P33261); human CYP2D6 (Homo sapiens, UniProt P10635); CYP3A4 (Homo sapiens, UniProt P08684).
The target of a further data set is T1, human CYP1A2 (Homo sapiens, UniProt P05177).
T1 sequence (P05177 1-516): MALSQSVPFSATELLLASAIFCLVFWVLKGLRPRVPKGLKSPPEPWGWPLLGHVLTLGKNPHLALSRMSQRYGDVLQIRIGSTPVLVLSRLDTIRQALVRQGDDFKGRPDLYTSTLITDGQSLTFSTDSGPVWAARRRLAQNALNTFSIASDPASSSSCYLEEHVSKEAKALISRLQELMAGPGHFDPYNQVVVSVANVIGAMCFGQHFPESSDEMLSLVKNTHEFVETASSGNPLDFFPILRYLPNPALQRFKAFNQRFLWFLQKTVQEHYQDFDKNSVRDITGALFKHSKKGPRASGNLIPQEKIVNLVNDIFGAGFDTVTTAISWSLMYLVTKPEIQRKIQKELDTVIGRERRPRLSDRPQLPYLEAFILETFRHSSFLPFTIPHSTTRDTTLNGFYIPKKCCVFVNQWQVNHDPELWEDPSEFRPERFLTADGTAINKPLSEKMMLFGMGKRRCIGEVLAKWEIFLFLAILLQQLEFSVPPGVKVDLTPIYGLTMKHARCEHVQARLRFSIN

human CYP2C9, sequence (P11712 whole entry): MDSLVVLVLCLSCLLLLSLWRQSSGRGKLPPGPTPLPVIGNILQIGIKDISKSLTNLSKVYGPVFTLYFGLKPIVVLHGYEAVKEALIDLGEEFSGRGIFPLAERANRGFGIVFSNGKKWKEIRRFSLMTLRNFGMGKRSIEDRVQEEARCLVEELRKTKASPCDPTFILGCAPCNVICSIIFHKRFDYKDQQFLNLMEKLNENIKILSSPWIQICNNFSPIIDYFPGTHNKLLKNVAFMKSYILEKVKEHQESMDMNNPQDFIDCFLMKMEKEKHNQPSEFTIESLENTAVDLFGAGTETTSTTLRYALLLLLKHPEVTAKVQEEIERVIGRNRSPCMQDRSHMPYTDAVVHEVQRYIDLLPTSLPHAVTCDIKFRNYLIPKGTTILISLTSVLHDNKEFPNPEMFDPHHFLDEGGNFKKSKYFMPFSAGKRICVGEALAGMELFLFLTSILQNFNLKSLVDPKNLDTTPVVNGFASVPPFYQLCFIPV
CYP3A4, sequence (P08684 whole entry): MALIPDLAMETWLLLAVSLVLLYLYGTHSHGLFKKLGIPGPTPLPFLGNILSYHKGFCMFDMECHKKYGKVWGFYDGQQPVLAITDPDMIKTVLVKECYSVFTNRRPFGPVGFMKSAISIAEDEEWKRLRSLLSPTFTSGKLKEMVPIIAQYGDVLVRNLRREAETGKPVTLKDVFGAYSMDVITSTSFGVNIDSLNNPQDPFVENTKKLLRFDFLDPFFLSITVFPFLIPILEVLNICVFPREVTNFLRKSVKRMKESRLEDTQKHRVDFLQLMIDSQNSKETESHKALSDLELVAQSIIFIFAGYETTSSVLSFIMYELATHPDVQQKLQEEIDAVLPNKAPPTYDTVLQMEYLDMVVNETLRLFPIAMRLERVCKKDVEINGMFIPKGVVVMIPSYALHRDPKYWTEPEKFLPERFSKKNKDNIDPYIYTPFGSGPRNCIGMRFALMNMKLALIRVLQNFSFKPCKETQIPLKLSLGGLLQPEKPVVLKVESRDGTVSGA
human CYP2C19, sequence (P33261 whole entry): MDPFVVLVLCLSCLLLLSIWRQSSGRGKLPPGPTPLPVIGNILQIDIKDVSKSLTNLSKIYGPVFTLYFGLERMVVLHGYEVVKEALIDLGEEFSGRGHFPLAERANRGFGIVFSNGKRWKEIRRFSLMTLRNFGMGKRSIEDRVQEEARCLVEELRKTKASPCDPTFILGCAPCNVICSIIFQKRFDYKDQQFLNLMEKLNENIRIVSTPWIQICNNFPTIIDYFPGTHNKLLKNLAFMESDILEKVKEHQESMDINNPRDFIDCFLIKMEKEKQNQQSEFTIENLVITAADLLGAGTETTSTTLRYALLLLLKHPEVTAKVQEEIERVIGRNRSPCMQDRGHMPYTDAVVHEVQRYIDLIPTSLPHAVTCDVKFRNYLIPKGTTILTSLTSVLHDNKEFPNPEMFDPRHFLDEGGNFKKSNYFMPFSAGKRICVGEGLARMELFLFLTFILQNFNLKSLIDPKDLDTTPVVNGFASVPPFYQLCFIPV
human CYP2D6, sequence (P10635 whole entry): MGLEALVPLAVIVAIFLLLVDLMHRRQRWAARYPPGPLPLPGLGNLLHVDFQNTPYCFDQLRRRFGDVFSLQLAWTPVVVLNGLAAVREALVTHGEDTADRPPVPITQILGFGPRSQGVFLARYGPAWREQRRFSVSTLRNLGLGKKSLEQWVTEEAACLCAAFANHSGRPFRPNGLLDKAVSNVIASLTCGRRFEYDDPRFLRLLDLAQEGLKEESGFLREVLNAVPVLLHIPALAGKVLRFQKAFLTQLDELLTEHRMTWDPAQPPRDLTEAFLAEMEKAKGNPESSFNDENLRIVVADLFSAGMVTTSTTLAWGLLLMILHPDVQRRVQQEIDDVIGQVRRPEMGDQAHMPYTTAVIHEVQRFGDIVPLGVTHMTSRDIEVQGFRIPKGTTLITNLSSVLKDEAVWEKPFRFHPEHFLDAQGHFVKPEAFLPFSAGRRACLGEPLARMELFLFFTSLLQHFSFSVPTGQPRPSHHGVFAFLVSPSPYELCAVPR

By AC50 is commonly meant the concentration giving half of the maximal activity seen. A high value points to activity only at high concentration. Regarding `C[As+](C)(C)CC(=O)[O-]` [Arsenobetaine], the “CYP1A2 AC50 (half-maximal activity concentration)” value (“CYP1A2 AC50” below) at human CYP1A2 is reported as “Inactive”. Also, the “CYP2C9 AC50 (half-maximal activity concentration)” value (from here on “CYP2C9 AC50”) at human CYP2C9 is given as “Inactive”. The “CYP2C19 AC50 (half-maximal activity concentration)” value (shortened to “CYP2C19 AC50”) at human CYP2C19 is given as “Inactive”. In addition, the “CYP2D6 AC50 (half-maximal activity concentration)” value (from here on “CYP2D6 AC50”) at human CYP2D6 is listed as “Inactive”. At CYP3A4, half-maximal activity (AC50) was put at 47.7 µM.

On to `CCCCC(CC)C(=O)[O-].CCCCC(CC)C(=O)[O-].[Ba+2]` (stereo not shown) [Barium bis(2-ethylhexanoate)], for which, on human CYP1A2, the “CYP1A2 AC50” value is “Inactive”. On human CYP2C9, the “CYP2C9 AC50” value is listed as “Inactive”. Also, the “CYP2C19 AC50” value on human CYP2C19 is listed as “Inactive”. For the same compound, the “CYP2D6 AC50” value on human CYP2D6 is recorded as “Inactive”. The compound further yielded a concentration at half-maximal activity (AC50) at CYP3A4 of 38.5 µM.

On to `CC(=O)OC(C(=O)c1ccccc1)c1ccccc1` (stereo not shown) [Benzoin acetate], for which the AC50 on human CYP1A2 is 46.5 µM; on human CYP2C9 it was 33.2 µM; on human CYP2C19, 10.1 µM; at human CYP2D6 it was 59.5 µM; at CYP3A4, 34.5 µM.

With `O=C(Cc1ccccc1)OCc1ccccc1` [Benzyl phenylacetate], the AC50 at human CYP1A2 was found to be 12.7 µM; on human CYP2C9, 35.8 µM; on human CYP2C19, 13.5 µM; at human CYP2D6, 66.3 µM; at CYP3A4, 11.5 µM.

For `C/C=C(\C)C(=O)OCc1ccccc1` [Benzyl tiglate], the AC50 at human CYP1A2 is 37 µM; at CYP3A4 it was 39 µM. The “CYP2C9 AC50” value on human CYP2C9 is reported as “Inactive”. Also, the “CYP2C19 AC50” value on human CYP2C19 is on record as “Inconclusive inhibitor”. At human CYP2D6, the “CYP2D6 AC50” value is recorded as “Inactive”.

Take `C=C(C)C(=O)OCC(O)COc1ccc(C(C)(C)c2ccc(OCC(O)COC(=O)C(=C)C)cc2)cc1` (stereo not shown) [Bisphenol A glycidyl methacrylate]: the AC50 was determined as 63.5 µM at human CYP1A2; 3.46 µM at human CYP2C9; 7.59 µM on human CYP2C19; 37 µM on human CYP2D6; 3.3 µM at CYP3A4.

For `CC(c1ccc(O)cc1)c1ccc(O)cc1` [Bisphenol E], the “CYP1A2 AC50” value on human CYP1A2 is “Inactive”. Further, the AC50 on human CYP2C9 amounted to 38.6 µM; at human CYP2C19 it was 33.5 µM. Moreover, on human CYP2D6, the “CYP2D6 AC50” value is “Inactive”. Moreover, the “CYP3A4 AC50 (half-maximal activity concentration)” value on CYP3A4 is listed as “Inconclusive inhibitor”.

In the case of `CCC(=O)O[C@@H]1C=C2CC[C@@H]3[C@H](CC[C@]4(C)[C@@H](OC(=O)CC)CC[C@@H]34)C2CC1` (stereo partly shown) [Bolandiol dipropionate], the “CYP1A2 AC50” value on human CYP1A2 was “Inconclusive inhibitor”. For the same compound, the AC50 at human CYP2C9 worked out at 15.5 µM; at CYP3A4 it was 10.6 µM. Moreover, the “CYP2C19 AC50” value at human CYP2C19 is reported as “Inactive”. Moreover, at human CYP2D6, the “CYP2D6 AC50” value is “Inactive”.

With `CCOP(=S)(OCC)Oc1cc(Cl)c(Br)cc1Cl` [Bromophos-ethyl], the “CYP1A2 Efficacy (in parenthesis)” value on human CYP1A2 (human) was 3.3 ± 0.22 (-98 ± 3) %. The “CYP2C9 Efficacy (in parenthesis)” value on human CYP2C9 (human) is recorded as 2.36 ± 0.42 (-102 ± 2) %. The “CYP2C19 Efficacy (in parenthesis)” value at human CYP2C19 (human) is 0.71 ± 0.08 (-121 ± 12) %. Further, the “CYP2D6 IC50 (half-maximal inhibitory concentration)” value on human CYP2D6 is on record as “Inactive”. On CYP3A4, the “CYP3A4 Efficacy (in parenthesis)” value is reported as 1.97 ± 0.48 (-79 ± 2) %.

Take `O=[N+]([O-])c1ccc(Nc2ccc(Nc3ccccc3)c(S(=O)(=O)[O-])c2)c([N+](=O)[O-])c1.[Na+]` [C.I. Acid Orange 3]: at human CYP1A2, the “CYP1A2 AC50” value was “Inactive”. The values for the AC50 at human CYP2C9 and at CYP3A4 were 34.3 µM and 62.6 µM, respectively. Also, on human CYP2C19, the “CYP2C19 AC50” value is “Inconclusive inhibitor”. Further, the “CYP2D6 AC50” value on human CYP2D6 is on record as “Inactive”.

For the compound `N.N.O=C([O-])C1(C(=O)[O-])CCC1.[Pt+2]` [Carboplatin], the AC50 on human CYP1A2 was 15.6 µM; on human CYP2C9, 9.46 µM; on human CYP2C19, 17.7 µM; at human CYP2D6 it was 28.7 µM; on CYP3A4, 31.3 µM.

For the compound `CC(=O)[O-].CC(=O)[O-].CC(=O)[O-].[Cr+3]` [Chromium(III) acetate], the “CYP1A2 AC50” value at human CYP1A2 is listed as “Inactive”. For the same compound, the AC50 on human CYP2C9 came to 96.3 µM; on CYP3A4, 69.6 µM. In addition, at human CYP2C19, the “CYP2C19 AC50” value is on record as “Inactive”. In addition, the “CYP2D6 AC50” value on human CYP2D6 is on record as “Inactive”.

As for `CCOC(=O)COc1ccc2c(C)c(CCN(CC)CC)c(=O)oc2c1Cl.Cl` [Cloricromen hydrochloride], at human CYP1A2, the “CYP1A2 AC50” value is given as “Inconclusive inhibitor”. Also, the “CYP2C9 AC50” value at human CYP2C9 is given as “Inactive”. Also, on human CYP2C19, the “CYP2C19 AC50” value is on record as “Inactive”. Further, the AC50 at human CYP2D6 came out at 18.2 µM; at CYP3A4, 16.8 µM.

For the compound `O=C(O)C1(C(=O)Nc2ccc(Cl)cc2Cl)CC1` [Cyclanilide], the AC50 stood at 60.6 µM on human CYP1A2, 18.7 µM at human CYP2C9, 66.8 µM on human CYP2D6 and 55.5 µM on CYP3A4. Further, the “CYP2C19 AC50” value on human CYP2C19 is on record as “Inconclusive inhibitor”.

For `CC(=O)O[C@H]1CC[C@@]2(C)C(=CC[C@@H]3[C@@H]2CC[C@]2(C)C(C(C)=O)=CC[C@@H]32)C1` [Dehydropregnenolone acetate], the “CYP1A2 AC50” value at human CYP1A2 is reported as “Inactive”. In addition, the “CYP2C9 AC50” value at human CYP2C9 is “Inactive”. On human CYP2C19, the “CYP2C19 AC50” value is reported as “Inactive”. Further, at human CYP2D6, the “CYP2D6 AC50” value was “Inactive”. Moreover, on CYP3A4, the AC50 amounted to 4.44 µM.

As for `COC(=O)CCCCCCCC(=O)OC` [Dimethyl nonanedioate], the values for the AC50 on human CYP1A2 and on CYP3A4 were 40.1 µM and 58.1 µM, respectively. The “CYP2C9 AC50” value at human CYP2C9 is on record as “Inconclusive inhibitor”. Further, at human CYP2C19, the “CYP2C19 AC50” value was “Inconclusive inhibitor”. Also, the “CYP2D6 AC50” value on human CYP2D6 was “Inconclusive inhibitor”.

In the case of `O=C(Oc1ccccc1)c1cccc(C(=O)Oc2ccccc2)c1` [Diphenyl isophthalate], the AC50 at human CYP1A2 worked out at 36.1 µM; on human CYP2C9 it was 9.46 µM; at human CYP2C19, 9.89 µM; on human CYP2D6, 36.5 µM; on CYP3A4, 20.9 µM.

Take `CC(=O)O[C@@H]1C[C@H]2[C@@H]3CCc4cc(OC(=O)c5ccccc5)ccc4[C@H]3CC[C@]2(C)[C@H]1OC(C)=O` [Estriol benzoate diacetate]: the “CYP1A2 AC50” value at human CYP1A2 was “Inactive”. For the same compound, the AC50 on human CYP2C9 was found to be 22.8 µM; on CYP3A4 it was 3.74 µM. Moreover, the “CYP2C19 AC50” value on human CYP2C19 is listed as “Inactive”. In addition, at human CYP2D6, the “CYP2D6 AC50” value was “Inactive”.

On to `CCC(=O)Oc1ccc2c(c1)CC[C@@H]1[C@@H]2CC[C@@]2(C)[C@H]1C[C@@H](OC(=O)CC)[C@@H]2OC(=O)CC` [Estriol tripropionate], for which the “CYP1A2 AC50” value on human CYP1A2 was “Inconclusive inhibitor”. For the same compound, the AC50 on human CYP2C9 was 19.8 µM; at human CYP2C19 it was 29.9 µM; at CYP3A4 it was 4.92 µM. Also, the “CYP2D6 AC50” value at human CYP2D6 is reported as “Inconclusive inhibitor”.

For `CCOC(=O)C(C#N)=C(c1ccccc1)c1ccccc1` [Ethyl 2-cyano-3,3-diphenylacrylate], the AC50 at human CYP1A2 stood at 1.87 µM; at human CYP2C9, 3.75 µM; on human CYP2C19 it was 4.01 µM; on CYP3A4, 7.23 µM. In addition, the “CYP2D6 AC50” value on human CYP2D6 is listed as “Inconclusive inhibitor”.

The values are drawn from article PMC12155096 (International Journal of Molecular Sciences, 2025).
